Three compounds from patent US20140350114A1, “COMPOSITIONS COMPRISING CYCLOHEXYLAMINES AND AMINOADAMANTANES” (MERZ PHARMA GmbH & CO. KGaA, priority 2003, published 2014) can be followed below.

The nature of assay [1]: antimicrobial activity in preserving liquid aqueous formulations (general observation). The settings on record: at concentrations useful for pharmaceutical formulation purposes.
For assay [2], the system named is Candida albicans, Aspergillus niger, Escherichia coli, Pseudomonas aeruginosa, Staphylococcus aureus. Briefly: Antimicrobial Effectiveness Testing USP <51>, overall conclusion. Type of assay: cell-based. The settings on record: all inoculums. The method, then: The testing was performed in accordance with the USP <51> using the culture conditions for inoculum specified in the test conditions. The Antimicrobial Effectiveness Testing (referred to later in the text as APE or antimicrobial effectiveness) is performed as described in USP 26, The United States Pharmacopeial Convention, Inc. (Rockville, Md., 2002; pp. 2002-2004). The test is conducted in five sterile, capped bacteriological containers into which a sufficient volume of product has been transferred. Test organisms include Candida albicans (ATCC No. 10231), Aspergillus niger (ATCC No. 16404), Escherichia coli (ATCC No. 8739), Pseudomonas aeruginosa (ATCC No. 9027), Staphylococcus aureus (ATCC No. 6538). Each container is inoculated with one of the prepared and standardized inoculum, and mix. […] The number of cfu present in each test preparation is determined by the plate-count procedure, specified in the monograph, for the applicable intervals. Using the calculated concentrations of cfu per mL present at the start of the test, the change in log10 values of the concentration of cfu per mL for each microorganism is calculated at the applicable test intervals, and the changes in terms of log reductions is expressed. Results are evaluated in accordance with the Product Category for Oral Products made with aqueous bases or vehicle.

Take `CC12CC3CC(C)(C1)CC(N)(C3)C2` [memantine, 1-amino-3,5-dimethyl adamantane]: the antimicrobial activity result in assay [1] is listed as “significant antimicrobial activity”.

As to `CC1(C)CC(C)(C)CC(C)(N)C1` [neramexane, 1-amino-1,3,3,5,5-pentamethylcyclohexane], the antimicrobial activity entry in assay [1] is recorded as “significant antimicrobial activity”. For the same compound, in assay [2], the “antimicrobial / preservative effectiveness against USP <51> criteria (conclusion)” value is given as “sufficient preservative efficacy”. In the case of `CN(C)CCOCC(=O)NC12CC3CC(CC(C3)C1)C2` [tromantadine, 1-(dimethylaminoethoxyacetamido) adamantane], the antimicrobial activity entry in assay [1] was “significant antimicrobial activity”.
